This note sets out measurements from patent publication US8183388B2, “Androgen receptor modulator and uses thereof” (Eli Lilly and Company, priority 2009, dated 2012).

For assay [1], the target named is T1, human AR (androgen receptor) (Homo sapiens, UniProt P10275).
T1 construct: expressed in transfected cells; host or cells: HEK293 (lysate, 293-AR)
T1 sequence (P10275 1-920): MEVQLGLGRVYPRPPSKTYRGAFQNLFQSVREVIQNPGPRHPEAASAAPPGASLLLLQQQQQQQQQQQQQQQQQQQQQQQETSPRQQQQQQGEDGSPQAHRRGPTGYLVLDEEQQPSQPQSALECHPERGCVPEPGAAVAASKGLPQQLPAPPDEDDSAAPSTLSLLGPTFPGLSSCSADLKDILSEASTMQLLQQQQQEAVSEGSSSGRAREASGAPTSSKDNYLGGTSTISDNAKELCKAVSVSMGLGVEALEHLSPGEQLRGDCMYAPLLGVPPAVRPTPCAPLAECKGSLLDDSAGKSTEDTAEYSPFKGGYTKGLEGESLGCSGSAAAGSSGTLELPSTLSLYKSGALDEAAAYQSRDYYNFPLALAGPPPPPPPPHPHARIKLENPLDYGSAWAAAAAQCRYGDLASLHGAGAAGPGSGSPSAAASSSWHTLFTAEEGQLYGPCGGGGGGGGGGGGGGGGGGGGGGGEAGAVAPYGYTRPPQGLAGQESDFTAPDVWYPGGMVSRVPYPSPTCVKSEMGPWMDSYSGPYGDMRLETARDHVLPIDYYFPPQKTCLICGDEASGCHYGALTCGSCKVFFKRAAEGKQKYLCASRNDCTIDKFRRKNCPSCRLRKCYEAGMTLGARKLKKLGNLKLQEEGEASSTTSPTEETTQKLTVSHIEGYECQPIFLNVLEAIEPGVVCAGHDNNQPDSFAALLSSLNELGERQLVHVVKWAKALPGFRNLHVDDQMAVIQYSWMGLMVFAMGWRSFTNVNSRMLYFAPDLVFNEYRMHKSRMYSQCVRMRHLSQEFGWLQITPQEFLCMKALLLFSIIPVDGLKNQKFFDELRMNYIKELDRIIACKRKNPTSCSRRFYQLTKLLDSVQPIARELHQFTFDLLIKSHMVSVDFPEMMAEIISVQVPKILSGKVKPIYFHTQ
Put plainly: Steroid hormone nuclear receptor binding assay, AR. As to conditions: HEK293 lysate overexpressing human AR, [3H]-methyltrienolone. How it is done: Cell lysates from human embryonic kidney HEK293 cells overexpressing human MR (mineralocorticoid receptor), GR (glucocorticoid receptor), AR (androgen receptor), or PR (progesterone receptor) are used for receptor-ligand competition binding assays to determine Ki values. Typical procedures are provided below
Briefly, steroid receptor competition binding assays are run in a buffer containing 20 mM HEPES buffer (pH=7.6), 0.2 mM EDTA, 75 mM NaCl, 1.5 mM MgCl2, 20% glycerol, 20 mM sodium molybdate, 0.2 mM DTT (dithiothreitol), 20 μg/mL aprotinin and 20 μg/mL leupeptin (assay buffer). […] Assays are typically run in 96-well format. Competing test compounds are added at various concentrations ranging from about 0.01 nM to 10 μM. Non-specific binding is determined in the presence of 500 nM aldosterone for MR binding, 500 nM dexamethasone for GR binding, or 500 nM methyltrienolone for AR and PR binding. The binding reactions (140 μL) are incubated overnight at 4° C., then 70 μL of cold charcoal-dextran buffer (containing per 50 mL of assay buffer, 0.75 g of charcoal and 0.25 g of dextran) is added to each reaction. […] After an incubation of 2 hours, plates are read in a Wallac Microbeta counter.
The Kd for [^3H]-aldosterone for MR binding, [^3H]-dexamethasone for GR binding, [^3H]-methyltrienolone for AR binding, or [^3H]-methyltrienolone for PR binding, is determined by saturation binding. […]

For assay [2], the target named is T2, human androgen receptor (AR) (Homo sapiens, UniProt P10275).
T2 construct: expressed in transfected cells; host or cells: mouse myoblast C2C12 cells
T2 sequence (P10275 1-920): T1 sequence (P10275 1-920)
As to the kind of experiment: C2C12 AR/ARE reporter assay. The format is cell-based. The conditions noted are these: mouse myoblast C2C12 cells, agonist mode, geometric mean of n=7; SD of about 0.08. How it is done:
As an indicator of agonist activity in muscle tissue, the C2C12 AR/ARE reporter assay is performed. Briefly, mouse myoblast C2C12 cells are co-transfected using Fugene™ reagent. A reporter plasmid containing a GRE/ARE (glucocorticoid response element/androgen response element) and TK promoter upstream of the luciferase reporter cDNA, is transfected with a plasmid constitutively expressing human androgen receptor (AR) using viral CMV promoter. Cells are transfected in T150 cm^2 flasks in DMEM media with 4% charcoal stripped Fetal Bovine Serum (FBS). After a 5 hour incubation, transfected cells are trypsinized, plated in 96 well dishes in DMEM media containing 4% charcoal-stripped FBS, incubated for 2 h and then exposed to various concentrations of test compounds ranging from about 0.01 nM to 10 μM. […] Data is fit to a 4 parameter-fit logistics to determine EC50 values. The % efficacy is determined versus maximum stimulation obtained with 10 nM methyltrienolone.
(A reporter such as luciferase makes a cellular process visible.)

One may read the Ki as the dissociation constant of the complex between target and ligand, obtained from inhibition or displacement. The low end stands for higher affinity, the high end for lower affinity. What is called EC50 is the concentration needed to bring the measured effect to its halfway point. On to `CC(C)OC(=O)N[C@H]1Cc2c(n(C[C@H]3OCC[C@@H]3O)c3ccc(C#N)cc23)C1` [compound of Formula (I), [(S)-7-Cyano-4-((2R,3S)-3-hydroxytetrahydrofuran-2-ylmethyl)-1,2,3,4-tetrahydrocyclopenta[b]indol-2-yl]-carbamic acid isopropyl ester], for which the Ki in assay [1] was approximately 10 nM. In addition, the EC50 in assay [2] was approximately 0.2 nM.
